For 86 molecules, melting point results are on record in a melting point compilation (Tetko et al.; mined from patent text by program, amines drawn as free bases though some values may be those of a salt).

Each structure is given as a SMILES string. Some results are limits rather than exact numbers.

`Cc1cccc2nc(NC(=O)c3ccc(C(C)(C)C)cc3)cn12`: the melting point (commonly the temperature, or range, at which the solid turns liquid) lay in the range of 204 to 205 °C.

The molecule `O=C1c2ccccc2COc2cc(Br)ccc21` displayed a melting point of 110 to 112 °C.

For `Cc1ccc(C(=O)NCCN(C)C)cc1-n1c(C)cc(OCc2ccccc2CNC(=O)Nc2cc(C(C)(C)C)nn2-c2ccc(O)c(Cl)c2)c(Cl)c1=O`, the melting point fell in the range of 181 to 182 °C.

With `C[C@@H]1CN(CCCn2c3ccc(O)cc3c3c4c(c(-c5c(Cl)cccc5Cl)cc32)C(=O)NC4=O)C[C@H](C)N1`, the melting point was in the range of 160 to 165 °C.

The molecule `O=C(NC(=O)C(c1ccccc1)c1ccccc1)OC1CCCCC1` showed a melting point of 117 to 119 °C.

`Cc1nn(-c2ccccc2)c(O)c1-c1c(C)nn(-c2ccccc2)c1O` yielded a melting point of more than 280 °C.

With `CCOC(=O)c1cn(CC)nc1OCc1ccc(OCc2nc(-c3ccco3)oc2C)c(OC)c1`, the melting point was 114 to 115 °C.

With `O=C1NCCCCC1(Br)Br`, the melting point was in the range of 156 to 159 °C.

The molecule `CCCN(CCC)C(=O)n1cnc(S(=O)(=O)CCC)n1` registered a melting point of 79 to 80 °C.

`CC(=O)N1CCc2c1cc(C)c(S(=O)(=O)C[N+](=O)[O-])c2C` gave a melting point of 204 °C.

`COc1cc(NC(=O)Nc2c(-c3ccccc3C)c3cc4c(cc3oc2=O)CCC4)cc(OC)c1O` displayed a melting point of 176 to 179 °C.

Molecule `CCOC(=O)C(=O)Nc1nccc2snc(NC(=O)C(=O)OCC)c12` yielded a melting point of 168 °C.

In turn, `CCCc1nc2c(C(F)(F)F)cccc2c(O)c1C(=O)O` displayed a melting point of 148 °C.

In turn, `CCOC(=O)C(=CN(C)C)C(=O)C(Cl)Cl` gave a melting point of 71 to 72 °C.

The molecule `CCCNC(=O)c1c(N)cc(Cl)cc1Cl` showed a melting point of 113 to 119 °C.

As to `N#CC12COc3cc(Cl)ccc3C1=NN(C(=O)Nc1ccc(C(F)(F)F)cc1)C2` (stereo unspecified), the melting point was in the range of 227 to 229 °C.

`FC(F)(F)c1cc(Br)c2nc(N3CCN(c4ncccc4C(F)(F)F)CC3)[nH]c2c1` came in with a melting point of 196 °C.

Molecule `COc1cccc(-c2ccc(O)cc2)c1` came in with a melting point of 93 to 95 °C.

Molecule `CCc1nccn1CC(=O)c1ccc(-c2ccc(N3C[C@H](Cn4ccnn4)OC3=O)cc2F)cn1` gave a melting point of 77 to 79 °C.

`CC(=O)OC1CCC2(C)C(CCC3=C4C(=O)CC(C(C)CCCOS(=O)(=O)c5ccc(C)cc5)C4(C)CCC32)C1` (stereo unspecified) gave a melting point of 158 to 160 °C.

On to `CCOCc1nc2c(N)nc3cc(Br)ccc3c2n1CC1CCOCC1`, for which the melting point lay within 186 to 188 °C.

For the molecule `O=C1CC(c2ccccc2)=Nc2ccccc2N1Cc1ccccc1`, the melting point lay within 122 to 123 °C.

In the case of `COc1ccc(N2CCN(CC(O)COc3cccc4cc(C(C)=O)oc34)CC2)cc1` (stereo unspecified), the melting point is 173 to 175 °C.

Regarding `CS(=O)(=O)NC(=O)C1(CCCCCCCCCCCCC2(C(N)=O)CC2)CC1`, the melting point was in the range of 119 to 120 °C.

`CCNC(=O)c1c(Cl)cccc1[Si](C)(C)CBr` registered a melting point of 98 to 99 °C.

With `O=C1Nc2ccc(I)cc2C1=NNC(=O)c1ccc(OC(F)(F)F)cc1`, the melting point was 306 °C.

For the molecule `CCC1c2ccc(C#N)n2-c2ccc(F)cc2N1S(=O)(=O)c1ccc(O)c(C)c1` (stereo unspecified), the melting point was in the range of 192 to 194 °C.

For `CN1CCc2c(Cl)ccc3c4c(n(c23)CC1)CCCC4`, the melting point was 128 to 130 °C.

`CC(C)(C)OC(=O)N[C@@H](CC1CCCCC1)[C@@H]1CO1` came in with a melting point of 58 to 59.5 °C.

In the case of `COc1cccc2c(=O)c(C)c3sc4ccccc4nc-3c12`, the melting point fell in the range of 170 to 171 °C.

Molecule `CN1CCC(c2c[nH]c3ccc(NC(=O)C4CCCC4)nc23)CC1` displayed a melting point of 119 to 121 °C.

The molecule `Nc1cc(=O)n(Cc2cc(Cl)ccc2Cl)[nH]1` came in with a melting point of 195 to 196 °C.

In turn, `Cc1nc(N2CCN(CC(C)C)C2=O)sc1C(=O)NCc1cocn1` yielded a melting point of 115 to 118 °C.

Take `OC(c1cc(F)cc(F)c1)c1cc(F)cc(F)c1`: the melting point came out at 62 °C.

`CCCc1cc(C#N)sc1-c1ccc2c(c1)C(C)(C)OC(=O)N2` registered a melting point of 160 to 162 °C.

Take `COc1ccc(C(=O)Nc2c(Cl)cncc2Cl)c2c1oc1ccc(Cl)cc12`: the melting point was more than 250 °C.

Molecule `COc1cc(-n2nc(C#N)cc2-c2ccc(S(C)(=O)=O)cc2)ccc1Br` gave a melting point of 212 to 214 °C.

The molecule `COC(=O)c1ccccc1S(=O)(=O)Cc1c(O)ccc2c1CCCC2=O` gave a melting point of 194 to 196 °C.

The molecule `FC(F)(F)c1cccc(-c2cnnn2-c2cc(Cl)ccc2-c2nnn[nH]2)c1` came in with a melting point of 230 to 232 °C.

For the molecule `CN(C)C(=O)C(Nc1ccccc1)c1ccccc1` (stereo unspecified), the melting point was in the range of 134 to 137 °C.

The molecule `Brc1ccc(Cn2cncn2)cc1` gave a melting point of 77 to 79 °C.

Consider `CC(C)c1nc(C(=O)NC2CC2)c(C(=O)O)o1`, for which the melting point was in the range of 109 to 112 °C.

For `CCOC(=O)CON(C(=S)Nc1cc(Cl)ccc1C)C(C)C`, the melting point lay within 83 to 85 °C.

Molecule `CCCCCCCCCCCCCCCCCCOc1ccc(OCCCc2ccccc2)c(C(=O)N(CC(=O)O)CC(=O)O)c1` returned a melting point of 101 to 102 °C.

`CCN(CC)CCCOc1ccc(C(O)(CC)c2cccc(C(F)(F)F)c2)cc1` (stereo unspecified) returned a melting point of 44 to 46 °C.

Consider `CCOC(OCC)C(C#N)(C=O)Cc1cc(OC)c(OC)c(OC)c1` (stereo unspecified), for which the melting point is 109 to 115 °C.

Molecule `CCOC(=O)C(=Cc1ccccc1)S(=O)(=O)NC(=O)Nc1nc(OC)cc(OC)n1` showed a melting point of 140 to 143 °C.

For `Oc1nnc2ccc3ccccc3n12`, the melting point is 134 °C.

With `COc1cccc2c(=O)n(S(=O)(=O)c3ccc(Cl)cc3)c(=O)[nH]c12`, the melting point was 220 to 222 °C.

Consider `CS(=O)(=O)Nc1cc2occ([N+](=O)[O-])c(=O)c2cc1Oc1ccccc1`, for which the melting point is 225 to 227 °C.

In turn, `CNC1(C2CCCCC2)C(=O)Nc2ccc(Cl)cc21` (stereo unspecified) displayed a melting point of 195 to 198 °C.

Molecule `COC(=O)c1ccc2sc(C)c(Cl)c2c1` gave a melting point of 85 to 86 °C.

Turning to `CCC(Oc1ccc2nc(NC(=O)NCCN3CCOCC3)sc2c1)c1c(Cl)cccc1Cl` (stereo unspecified), the melting point was 200 °C.

`COc1ccc(/C=C/C2=CCN(Cc3c[nH]c4ncccc34)CC2)cc1` registered a melting point of 201 to 204 °C.

With `COc1cccc(OC2CN([C@H]3CC[C@@H](c4cc5cc(C#N)ccc5[nH]4)CC3)C2)c1`, the melting point fell in the range of 126 to 127 °C.

`O=C1Nc2cc(Cl)ccc2C1c1ncnc2c1cnn2C1CCCC1` (stereo unspecified) returned a melting point of 288 to 291 °C.

Turning to `Cc1nc2ccccc2c(NCCO)c1Br`, the melting point lay in the range of 154 to 155 °C.

In turn, `O=C(NO)[C@H](CNS(=O)(=O)c1ccc(OCc2ccc(F)cc2)cc1)N1CCCCC1` registered a melting point of 140 °C.

The molecule `COc1ccc([C@@H]2Cc3c(cccc3C(F)(F)F)N(CC3=NCCN3C(=O)OC(C)(C)C)C(=O)[C@@H]2OC(C)=O)cc1` gave a melting point of 105 to 108 °C.

As to `OC(COc1cccc2[nH]ccc12)CN1CCC(c2c[nH]c3cc(F)ccc23)CC1` (single isomer, unassigned; (+)), the melting point lay within 94 to 97 °C.

Molecule `COC(=O)c1ccc(C2C(C(=O)c3ccc(C)cc3)=C(O)C(=O)N2c2ncc(S(=O)(=O)c3ccc([N+](=O)[O-])cc3)s2)cc1` (stereo unspecified) came in with a melting point of 249 to 251 °C.

Turning to `O=C(O)c1cc(CCNS(=O)(=O)c2ccccc2)c2cccccc1-2`, the melting point fell in the range of 193 to 195 °C.

Molecule `CCOC(=O)C(C(=O)OCC)=C1CN(C)C(=O)c2ccccc2N1` gave a melting point of 139 °C.

Molecule `O=C(c1ccc(OCCN2CCCC2)cc1)c1c(-c2ccc(Cl)cc2)sc2ccccc12` showed a melting point of 97 to 98 °C.

For `Cc1cccc(-c2coc3c(O)c(O)ccc3c2=O)c1`, the melting point is 268 °C.

The molecule `Cc1cccc(-c2nc3ccc(Cl)nn3c2-c2ccnc(N)n2)c1` yielded a melting point of 237 to 238 °C.

In the case of `CC(C)c1cc(C(C)C)c(NC(=O)CN2CCN(CCSc3nc4ccccc4[nH]3)CC2)c(C(C)C)c1`, the melting point fell in the range of 217 to 218 °C.

As for `O=C(O)c1cc(O)c(O)c([N+](=O)[O-])c1`, the melting point is 224 to 226 °C.

The molecule `COc1cc2c(cc1OC)C(CCCl)OCC2` (stereo unspecified) yielded a melting point of 161 to 163 °C.

For `CC(C)n1cnc2c(NCc3ccccc3)nc(NCCCO)nc21`, the melting point fell in the range of 98 to 101 °C.

With `C#Cc1cc(Nc2ncnc3cnc(C)cc23)ccc1F`, the melting point amounted to 225 °C.

Consider `O=C(c1ccc(F)cc1)C1CCN(CCCn2c(=O)[nH]c3cc(C(F)(F)F)ccc32)CC1`, for which the melting point is 160 °C.

Turning to `CCOC(=O)C1=C2COC=CN2C(C)=C(C(=O)OC)C1c1ccccc1Cl` (stereo unspecified), the melting point lay within 126 to 127 °C.

Molecule `O=C(CCN1CCCC1)Nc1ccc2[nH]c3ccc(NC(=O)CCN4CCCC4)cc3c(=O)c2c1` gave a melting point of more than 320 °C.

`CCNC(=O)c1ccccc1C(F)(F)F` showed a melting point of 73 to 76 °C.

The molecule `Cc1ccc2c(c1)C(c1ncnc3c1cnn3C1CCCC1)C(=O)N2` (stereo unspecified) had a melting point of more than 300 °C.

With `O=C(NCCO)c1cccc(-c2ccc3ccn(-c4ccc(Cl)cc4Cl)c3c2)c1`, the melting point lay in the range of 163 to 164 °C.

For `Cc1cc(-c2nc3cc(F)cc(N4CCCC4)c3c(=O)[nH]2)cc(C)c1OCCN1CCCC1`, the melting point is 207 °C.

In turn, `Cc1cc(-c2nc3cccnn3c2-c2ccnc(NC(=O)NCC(C)C)c2)ccc1F` registered a melting point of 213 to 214 °C.

As for `CC(CF)(CF)C(O)C(Oc1cccc(C(F)(F)F)c1)n1ccnc1` (stereo unspecified), the melting point was 107 to 120 °C.

Molecule `CCOP(=O)(/C=C/c1cn(-c2ccccc2)nc1OCc1ccc(OCc2nc(-c3ccco3)oc2C)cc1)OCC` registered a melting point of 131 to 132 °C.

`COc1ccc(-c2cc3cc(F)c(F)cc3[nH]2)cc1NS(=O)(=O)c1cccc([N+](=O)[O-])c1` had a melting point of 228 to 230 °C.

Turning to `S=C(Nc1ccc(Cl)cn1)N[C@@H]1C[C@@H]1c1ccccc1`, the melting point fell in the range of 190 to 191 °C.

As for `CN[C@H](Cc1ccc2ccccc2c1)C(=O)N1CCN(S(C)(=O)=O)C[C@H]1Cc1ccccc1`, the melting point lay within 165 to 168 °C.

As to `Clc1cc(Cl)c(Oc2nc(Oc3c(Cl)cc(Cl)c(Cl)c3Cl)nc(Oc3c(Cl)cc(Cl)c(Cl)c3Cl)n2)c(Cl)c1Cl`, the melting point was 165 to 168 °C.

On to `CCOC(=O)COc1ccc(C2=NNC(=O)NC2C)cc1` (stereo unspecified), for which the melting point lay in the range of 152 to 153 °C.
